The source of these data is patent US20240218022A1, “ANTI-VISTA MACROCYCLIC PEPTIDES AND COMPOSITIONS” (BRISTOL-MYERS SQUIBB COMPANY, priority 2022, published 2024).

One may read the IC50 as the concentration that inhibits the measured activity by half.

Structures are written as SMILES. Starred links: 1 amine or outer side, 2 acyl side, 3 side chain; linkers in the order of their positions; H or OH if unused. Positions of bridges follow the written chain, without caps; N, C: chain ends. Non-standard residues stand in square brackets, D forms with d. Residues, ends and D or L forms follow the SMILES beside them. ξ: configuration not given here. Phe(4-COOH) = N[C@@H](Cc1ccc(C(=O)O)cc1)C(=O)O; γGlu = O=C(O)[C@H](CCC(=O)[*:2])N[*:1]; NMeIle(3ξ) = CCC(C)[C@H](NC)C(=O)O; Val(3-OH) = CC(C)(O)[C@H](N)C(=O)O; 4Pal = N[C@@H](Cc1ccncc1)C(=O)O; NMeE = CN[C@@H](CCC(=O)O)C(=O)O; Tic = O=C(O)[C@@H]1Cc2ccccc2CN1; Ahp(2) = CCCCC[C@H](N)C(=O)O; NMeNle = CCCC[C@H](NC)C(=O)O; Tle = CC(C)(C)[C@H](N)C(=O)O; NMeS = CN[C@@H](CO)C(=O)O; NHexGly = CCCCCCNCC(=O)O; NMeA = CN[C@@H](C)C(=O)O; Nle = CCCC[C@H](N)C(=O)O; Aun = NCCCCCCCCCCC(=O)O; Nva = CCC[C@H](N)C(=O)O; AEEA = NCCOCCOCC(=O)O

In this assay the target is T1, mouse VISTA (mVISTA) (Mus musculus, UniProt Q9D659).
T1 construct: expressed in transfected cells; host or cells: Human embryonic kidney 293T cells
T1 sequence (Q9D659 33-308): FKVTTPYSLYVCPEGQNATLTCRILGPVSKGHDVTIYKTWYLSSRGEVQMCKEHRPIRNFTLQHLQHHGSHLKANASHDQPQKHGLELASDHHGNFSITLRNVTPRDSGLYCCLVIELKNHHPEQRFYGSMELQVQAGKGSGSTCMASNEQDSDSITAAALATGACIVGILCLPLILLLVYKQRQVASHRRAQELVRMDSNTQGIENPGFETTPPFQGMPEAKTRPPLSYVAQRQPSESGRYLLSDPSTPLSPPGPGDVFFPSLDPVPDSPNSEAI
In words: Cell-Based Binding High-Content Assay For mVISTA (HC CBA mVISTA). Particulars: read-out: HC CBA mVISTA IC50. Put shortly: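 This high-content binding assay uses HEK293T cells expressing murine VISTA, measuring displacement of 2 nM biotinylated peptide by fluorescent streptavidin imaging. IC50 values come from four-parameter logistic fitting.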
With `CCCCCCN1CC(=O)N[C@@H](Cc2ccc(O)cc2)C(=O)N[C@@H](CCCC)C(=O)N[C@@H](CC(N)=O)C(=O)N[C@@H](CCCNC(=N)N)C(=O)N[C@@H](CC(C)C)C(=O)N[C@@H](CCCCC)C(=O)N2CCC[C@H]2C(=O)N[C@@H](C(C)(C)C)C(=O)N[C@@H](CO)C(=O)N[C@H](C(=O)NCCOCCOCC(=O)N[C@@H](CCC(=O)NCCOCCOCC(=O)NCCCCCCCCCCC(=O)O)C(=O)O)CSCC(=O)N[C@@H](Cc2ccccc2)C(=O)N[C@@H](Cc2c[nH]c3ccccc23)C(=O)N[C@@H](CC(=O)O)C1=O` [compound 2243] ({CH2CO}-FWD[NHexGly]Y[Nle]NRL[Ahp(2)]P[Tle]SC[AEEA][γGlu][AEEA][Aun]-OH; thioether N-14), the IC50 was 38.9 nM.
To `CCCCCCN1CC(=O)N[C@@H](Cc2ccc(O)cc2)C(=O)N[C@@H](CCCC)C(=O)N[C@@H](CC(N)=O)C(=O)N[C@@H](CCCNC(=N)N)C(=O)N2Cc3ccccc3C[C@H]2C(=O)N[C@@H](CCCCC)C(=O)N2CCC[C@H]2C(=O)N[C@@H](C(C)(C)C)C(=O)N[C@@H](CO)C(=O)N[C@H](C(=O)NCCOCCOCC(=O)N[C@@H](CCC(=O)NCCOCCOCC(=O)NCCCCCCCCCCC(=O)O)C(=O)O)CSCC(=O)N[C@@H](Cc2ccccc2)C(=O)N[C@@H](Cc2c[nH]c3ccccc23)C(=O)N[C@@H](CC(=O)O)C1=O` [compound 2244] ({CH2CO}-FWD[NHexGly]Y[Nle]NR[Tic][Ahp(2)]P[Tle]SC[AEEA][γGlu][AEEA][Aun]-OH; thioether N-14) belongs 32.2 nM; to `CCCCCCN1CC(=O)N[C@@H](Cc2ccc(O)cc2)C(=O)N[C@@H](CCCC)C(=O)N[C@@H](CC(N)=O)C(=O)N[C@@H](CCCNC(=N)N)C(=O)N(C)[C@@H](CO)C(=O)N[C@@H](CCCCC)C(=O)N2CCC[C@H]2C(=O)N[C@@H](C(C)(C)C)C(=O)N[C@@H](CO)C(=O)N[C@H](C(=O)NCCOCCOCC(=O)N[C@@H](CCC(=O)NCCOCCOCC(=O)NCCCCCCCCCCC(=O)O)C(=O)O)CSCC(=O)N[C@@H](Cc2ccccc2)C(=O)N[C@@H](Cc2c[nH]c3ccccc23)C(=O)N[C@@H](CC(=O)O)C1=O` [compound 2245] ({CH2CO}-FWD[NHexGly]Y[Nle]NR[NMeS][Ahp(2)]P[Tle]SC[AEEA][γGlu][AEEA][Aun]-OH; thioether N-14), 27.8 nM.
With `CCCCCCN1CC(=O)N[C@@H](Cc2ccc(O)cc2)C(=O)N[C@@H](CCCC)C(=O)N[C@@H](CC(N)=O)C(=O)N[C@@H](CCCNC(=N)N)C(=O)N(C)[C@@H](C(C)CC)C(=O)N[C@@H](CCCCC)C(=O)N2CCC[C@H]2C(=O)N[C@@H](C(C)(C)C)C(=O)N[C@@H](CO)C(=O)N[C@H](C(=O)NCCOCCOCC(=O)N[C@@H](CCC(=O)NCCOCCOCC(=O)NCCCCCCCCCCC(=O)O)C(=O)O)CSCC(=O)N[C@@H](Cc2ccccc2)C(=O)N[C@@H](Cc2c[nH]c3ccccc23)C(=O)N[C@@H](CC(=O)O)C1=O` (stereo partly drawn) [compound 2246] ({CH2CO}-FWD[NHexGly]Y[Nle]NR[NMeIle(3ξ)][Ahp(2)]P[Tle]SC[AEEA][γGlu][AEEA][Aun]-OH; thioether N-14) the figure was 47 nM.
Consider `CCCCCCN1CC(=O)N[C@@H](Cc2ccc(O)cc2)C(=O)N[C@@H](CCCC)C(=O)N[C@@H](CC(N)=O)C(=O)N[C@@H](CCCNC(=N)N)C(=O)N(C)[C@@H](C)C(=O)N[C@@H](CCCCC)C(=O)N2CCC[C@H]2C(=O)N[C@@H](C(C)(C)C)C(=O)N[C@@H](CO)C(=O)N[C@H](C(=O)NCCOCCOCC(=O)N[C@@H](CCC(=O)NCCOCCOCC(=O)NCCCCCCCCCCC(=O)O)C(=O)O)CSCC(=O)N[C@@H](Cc2ccccc2)C(=O)N[C@@H](Cc2c[nH]c3ccccc23)C(=O)N[C@@H](CC(=O)O)C1=O` [compound 2247] ({CH2CO}-FWD[NHexGly]Y[Nle]NR[NMeA][Ahp(2)]P[Tle]SC[AEEA][γGlu][AEEA][Aun]-OH; thioether N-14), for which the IC50 was determined as 29.6 nM.
To `CCCCCCN1CC(=O)N[C@@H](Cc2ccc(O)cc2)C(=O)N[C@@H](CCCC)C(=O)N[C@@H](CC(N)=O)C(=O)N[C@@H](CCCNC(=N)N)C(=O)N(C)[C@@H](CCC(=O)O)C(=O)N[C@@H](CCCCC)C(=O)N2CCC[C@H]2C(=O)N[C@@H](C(C)(C)C)C(=O)N[C@@H](CO)C(=O)N[C@H](C(=O)NCCOCCOCC(=O)N[C@@H](CCC(=O)NCCOCCOCC(=O)NCCCCCCCCCCC(=O)O)C(=O)O)CSCC(=O)N[C@@H](Cc2ccccc2)C(=O)N[C@@H](Cc2c[nH]c3ccccc23)C(=O)N[C@@H](CC(=O)O)C1=O` [compound 2248] ({CH2CO}-FWD[NHexGly]Y[Nle]NR[NMeE][Ahp(2)]P[Tle]SC[AEEA][γGlu][AEEA][Aun]-OH; thioether N-14) belongs 45.4 nM; to `CCCCCCN1CC(=O)N[C@@H](Cc2ccc(O)cc2)C(=O)N[C@@H](CCCC)C(=O)N[C@@H](CC(N)=O)C(=O)N[C@@H](CCCNC(=N)N)C(=O)N(C)[C@@H](CCCC)C(=O)N[C@@H](CCCCC)C(=O)N2CCC[C@H]2C(=O)N[C@@H](C(C)(C)O)C(=O)N[C@@H](CO)C(=O)N[C@H](C(=O)NCCOCCOCC(=O)N[C@@H](CCC(=O)NCCOCCOCC(=O)NCCCCCCCCCCC(=O)O)C(=O)O)CSCC(=O)N[C@@H](Cc2ccccc2)C(=O)N[C@@H](Cc2c[nH]c3ccccc23)C(=O)N[C@@H](CC(=O)O)C1=O` [compound 2250] ({CH2CO}-FWD[NHexGly]Y[Nle]NR[NMeNle][Ahp(2)]P[Val(3-OH)]SC[AEEA][γGlu][AEEA][Aun]-OH; thioether N-14), 50.4 nM.
With `CCCCCCN1CC(=O)N[C@@H](Cc2ccc(O)cc2)C(=O)N[C@@H](CCCC)C(=O)N[C@@H](CC(N)=O)C(=O)N[C@@H](CCCNC(=N)N)C(=O)N(C)[C@@H](CCCC)C(=O)N[C@@H](CCCCC)C(=O)N2CCC[C@H]2C(=O)N[C@@H](C(C)(C)C)C(=O)N[C@@H](CO)C(=O)N[C@H](C(=O)NCCOCCOCC(=O)N[C@@H](CCC(=O)NCCOCCOCC(=O)NCCCCCCCCCCC(=O)O)C(=O)O)CSCC(=O)N[C@@H](Cc2ccc(C(=O)O)cc2)C(=O)N[C@@H](Cc2ccc(O)cc2)C(=O)N[C@@H](CC(=O)O)C1=O` [compound 2251] ({CH2CO}-[Phe(4-COOH)]YD[NHexGly]Y[Nle]NR[NMeNle][Ahp(2)]P[Tle]SC[AEEA][γGlu][AEEA][Aun]-OH; thioether N-14) the figure was 28.6 nM; with `CCCCCCN1CC(=O)N[C@@H](Cc2ccc(O)cc2)C(=O)N[C@@H](CCCC)C(=O)N[C@@H](CC(N)=O)C(=O)N[C@@H](CCCNC(=N)N)C(=O)N(C)[C@@H](CCCC)C(=O)N[C@@H](CCCCC)C(=O)N2CCC[C@H]2C(=O)N[C@@H](C(C)(C)C)C(=O)N[C@@H](CO)C(=O)N[C@H](C(=O)NCCOCCOCC(=O)N[C@@H](CCC(=O)NCCOCCOCC(=O)NCCCCCCCCCCC(=O)O)C(=O)O)CSCC(=O)N[C@@H](Cc2ccc(O)cc2)C(=O)N[C@@H](Cc2ccc(O)cc2)C(=O)N[C@@H](CC(=O)O)C1=O` [compound 2252] ({CH2CO}-YYD[NHexGly]Y[Nle]NR[NMeNle][Ahp(2)]P[Tle]SC[AEEA][γGlu][AEEA][Aun]-OH; thioether N-14), 12 nM.
Take `CCCCCCN1CC(=O)N[C@@H](Cc2ccc(O)cc2)C(=O)N[C@@H](CCCC)C(=O)N[C@@H](CC(N)=O)C(=O)N[C@@H](CCCNC(=N)N)C(=O)N(C)[C@@H](CCCC)C(=O)N[C@@H](CCCCC)C(=O)N2CCC[C@H]2C(=O)N[C@@H](C(C)(C)C)C(=O)N[C@@H](CO)C(=O)N[C@H](C(=O)NCCOCCOCC(=O)N[C@@H](CCC(=O)NCCOCCOCC(=O)NCCCCCCCCCCC(=O)O)C(=O)O)CSCC(=O)N[C@@H](Cc2ccncc2)C(=O)N[C@@H](Cc2c[nH]c3ccccc23)C(=O)N[C@@H](CC(=O)O)C1=O` [compound 2253] ({CH2CO}-[4Pal]WD[NHexGly]Y[Nle]NR[NMeNle][Ahp(2)]P[Tle]SC[AEEA][γGlu][AEEA][Aun]-OH; thioether N-14): the IC50 turned out to be 20.7 nM.
To `CCCCCCN1CC(=O)N[C@@H](Cc2ccc(O)cc2)C(=O)N[C@@H](CCCC)C(=O)N[C@@H](CC(N)=O)C(=O)N[C@@H](CCCNC(=N)N)C(=O)N[C@@H](CCCCN)C(=O)N[C@@H](CCCCC)C(=O)N2CCC[C@H]2C(=O)N[C@@H](C(C)(C)C)C(=O)N[C@@H](CC(=O)O)C(=O)N[C@H](C(=O)NCCOCCOCC(=O)N[C@@H](CCC(=O)NCCOCCOCC(=O)NCCCCCCCCCCC(=O)O)C(=O)O)CSCC(=O)N[C@@H](Cc2ccccc2)C(=O)N[C@@H](Cc2c[nH]c3ccccc23)C(=O)N[C@@H](CC(=O)O)C1=O` [compound 2254] ({CH2CO}-FWD[NHexGly]Y[Nle]NRK[Ahp(2)]P[Tle]DC[AEEA][γGlu][AEEA][Aun]-OH; thioether N-14) belongs 27.9 nM; to `CCCCCCN1CC(=O)N[C@@H](Cc2ccc(O)cc2)C(=O)N[C@@H](CCC)C(=O)N[C@@H](CC(N)=O)C(=O)N[C@@H](CCCNC(=N)N)C(=O)N(C)[C@@H](CCCC)C(=O)N[C@@H](CCCCC)C(=O)N2CCC[C@H]2C(=O)N[C@@H](C(C)(C)C)C(=O)N[C@@H](CC(=O)O)C(=O)N[C@H](C(=O)NCCOCCOCC(=O)N[C@@H](CCC(=O)NCCOCCOCC(=O)NCCCCCCCCCCC(=O)O)C(=O)O)CSCC(=O)N[C@@H](Cc2ccccc2)C(=O)N[C@@H](Cc2c[nH]c3ccccc23)C(=O)N[C@@H](CC(=O)O)C1=O` [compound 2255] ({CH2CO}-FWD[NHexGly]Y[Nva]NR[NMeNle][Ahp(2)]P[Tle]DC[AEEA][γGlu][AEEA][Aun]-OH; thioether N-14), 26.8 nM.
